The record followed here is ChEMBL document CHEMBL4308886, “Molecular features characterizing non-peptide selectivity to the human B1 and B2 bradykinin receptors” (Bioorg Med Chem Lett, 2019).

Common to all, as to assay type: cell-based
For assay [1], the target named is T1, B1 bradykinin receptor (Homo sapiens) (UniProt P46663).
T1 sequence (whole entry): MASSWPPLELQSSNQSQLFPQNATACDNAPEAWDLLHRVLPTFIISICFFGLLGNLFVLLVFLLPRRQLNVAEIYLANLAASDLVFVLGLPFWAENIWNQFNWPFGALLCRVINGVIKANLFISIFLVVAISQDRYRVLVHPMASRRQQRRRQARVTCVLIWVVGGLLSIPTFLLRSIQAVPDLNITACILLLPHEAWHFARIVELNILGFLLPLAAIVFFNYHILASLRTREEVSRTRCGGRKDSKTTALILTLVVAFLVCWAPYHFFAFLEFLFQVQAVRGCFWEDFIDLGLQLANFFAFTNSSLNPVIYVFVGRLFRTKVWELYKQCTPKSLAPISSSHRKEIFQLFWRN
The assay is described as follows: Displacement of [3H][…] from human recombinant bradykinin B1 receptor expressed in CHO cells at 50 uM measured after 1 hr relative to control. (Loss of bound radioactivity is the signal in a displacement assay; it reports binding, not function.)

Assay [2] has as its target T2, B2 bradykinin receptor (Homo sapiens) (UniProt P30411).
T2 sequence (whole entry): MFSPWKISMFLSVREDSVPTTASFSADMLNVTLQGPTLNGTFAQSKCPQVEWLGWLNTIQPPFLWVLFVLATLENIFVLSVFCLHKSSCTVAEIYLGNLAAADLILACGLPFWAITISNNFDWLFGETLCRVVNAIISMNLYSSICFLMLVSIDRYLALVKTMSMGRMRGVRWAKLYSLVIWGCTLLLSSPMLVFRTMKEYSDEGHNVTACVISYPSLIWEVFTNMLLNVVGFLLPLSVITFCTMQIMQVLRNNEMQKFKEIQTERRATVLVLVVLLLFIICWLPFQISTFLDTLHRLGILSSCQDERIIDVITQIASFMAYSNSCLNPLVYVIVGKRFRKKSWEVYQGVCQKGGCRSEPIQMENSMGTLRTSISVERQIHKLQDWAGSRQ
As to the kind of experiment: Displacement of [3H]bradykinin from human recombinant bradykinin B2 receptor expressed in CHO cells at 50 uM measured after 1 hr relative to control.

In assay [3] the target is T1, B1 bradykinin receptor (Homo sapiens). As to the kind of experiment: Displacement of [3H][…] from human recombinant bradykinin B1 receptor expressed in CHO cells at 10 uM measured after 1 hr relative to control.
The target of assay [4] is T2, B2 bradykinin receptor (Homo sapiens). As to the kind of experiment: Displacement of [3H]bradykinin from human recombinant bradykinin B2 receptor expressed in CHO cells at 10 uM measured after 1 hr relative to control.

One may read the inhibition as the percentage by which the read-out fell short of the control. Regarding `COc1cc(NC(C)CCCN)c2nc(C)ccc2c1OC1CCC(F)CC1` (configuration not stated), the inhibition in assay [1] worked out at 12%; in assay [2], 45%.

Regarding `CC1CCC(N2NC(=O)/C(=C\c3cccn3-c3ccc(S(N)(=O)=O)cc3)C2=O)CC1Cl` (configuration not stated), the inhibition came out at 41% in assay [2] and 31% in assay [3].

Take `COc1cc(NCCCCCCCC2CCCCN2)c2ncccc2c1` (configuration not stated): the inhibition stood at 46% in assay [1] and 65% in assay [2].

Regarding `COc1cc(NCCCCCCC2CCCCN2)c2ncccc2c1` (configuration not stated), the inhibition was determined as 31% in assay [1] and 36% in assay [2].

As for `CC1=C(C#N)C(=O)N(CCc2c[nH]c3ccccc23)C(=O)/C1=C\Nc1ccc(S(N)(=O)=O)cc1`, the inhibition in assay [3] turned out to be 32%; in assay [4], 34%.

As for `Cc1ccc(NC2=NC(=O)/C(=C/c3ccc(-c4ccc(C(=O)O)cc4)o3)S2)cc1Cl`, the inhibition in assay [3] came out at 14%; in assay [4], 33%.
